Data: patent US20260028354A1, “TETRAHYDRONAPHTHALENE DERIVATIVES AS ESTROGEN RECEPTOR DEGRADERS” (REGENT OF THE UNIVERSITY OF MICHIGAN, priority 2022, published 2026)
Structures can show the parent of a compound that is named as a salt. Where two headings read alike, the source gives them in different places.

What was measured:
ER in MCF-7 cells = ER in MCF-7 cells (Homo sapiens (Human), UniProt P03372); assay: In-cell Western (ICW) ER degradation assay in MCF-7 cells; type: cell-based; conditions: for DC50: MCF-7, ER degradation, read-out: MCF7 DC50; for MCF7 Dmax: MCF-7, maximal ER degradation
Chain of ER in MCF-7 cells (P03372 whole entry): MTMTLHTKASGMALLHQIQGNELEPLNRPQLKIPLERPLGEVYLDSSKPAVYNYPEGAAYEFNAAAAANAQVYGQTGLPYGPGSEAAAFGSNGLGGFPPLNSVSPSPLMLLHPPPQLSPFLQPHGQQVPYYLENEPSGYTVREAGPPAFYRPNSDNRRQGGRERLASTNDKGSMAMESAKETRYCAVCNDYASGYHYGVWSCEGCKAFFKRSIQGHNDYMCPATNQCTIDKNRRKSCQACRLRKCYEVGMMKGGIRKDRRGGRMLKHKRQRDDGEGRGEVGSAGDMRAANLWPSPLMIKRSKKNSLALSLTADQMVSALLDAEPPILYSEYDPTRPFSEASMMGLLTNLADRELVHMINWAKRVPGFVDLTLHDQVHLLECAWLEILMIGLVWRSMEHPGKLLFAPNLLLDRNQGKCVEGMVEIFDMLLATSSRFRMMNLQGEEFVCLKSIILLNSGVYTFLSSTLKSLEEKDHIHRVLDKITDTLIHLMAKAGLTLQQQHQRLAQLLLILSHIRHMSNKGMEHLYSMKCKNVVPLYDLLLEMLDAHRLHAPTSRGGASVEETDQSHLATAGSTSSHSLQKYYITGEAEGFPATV

ER in T47D cells = ER in T47D cells (Homo sapiens (Human), UniProt P03372); assay: In-cell Western (ICW) ER degradation assay in T47D cells; type: cell-based; conditions: for DC50: ER degradation
Chain of ER in T47D cells (P03372 whole entry): as above

CRBN/DDB1 = CRBN/DDB1 (Homo sapiens (Human), UniProt Q96SW2); type: binding; conditions: His tagged CRBN+DDB1, Cy5-labeled Thalidomide probe, one hour; read-out: CRBN HTRF IC50
Chain of CRBN/DDB1 (Q96SW2 whole entry, species assumed): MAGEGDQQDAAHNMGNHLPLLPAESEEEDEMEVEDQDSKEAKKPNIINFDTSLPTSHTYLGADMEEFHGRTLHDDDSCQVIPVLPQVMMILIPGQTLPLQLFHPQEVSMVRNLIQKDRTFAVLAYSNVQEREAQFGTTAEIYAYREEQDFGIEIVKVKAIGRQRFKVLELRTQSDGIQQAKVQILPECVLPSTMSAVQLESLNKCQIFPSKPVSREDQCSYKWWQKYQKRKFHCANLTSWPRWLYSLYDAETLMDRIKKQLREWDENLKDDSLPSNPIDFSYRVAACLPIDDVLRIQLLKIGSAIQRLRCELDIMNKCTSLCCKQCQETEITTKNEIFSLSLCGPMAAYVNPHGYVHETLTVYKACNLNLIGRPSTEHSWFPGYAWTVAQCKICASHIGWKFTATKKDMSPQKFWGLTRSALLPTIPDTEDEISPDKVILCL
Chain of CRBN/DDB1 (Q16531 whole entry partner, species assumed): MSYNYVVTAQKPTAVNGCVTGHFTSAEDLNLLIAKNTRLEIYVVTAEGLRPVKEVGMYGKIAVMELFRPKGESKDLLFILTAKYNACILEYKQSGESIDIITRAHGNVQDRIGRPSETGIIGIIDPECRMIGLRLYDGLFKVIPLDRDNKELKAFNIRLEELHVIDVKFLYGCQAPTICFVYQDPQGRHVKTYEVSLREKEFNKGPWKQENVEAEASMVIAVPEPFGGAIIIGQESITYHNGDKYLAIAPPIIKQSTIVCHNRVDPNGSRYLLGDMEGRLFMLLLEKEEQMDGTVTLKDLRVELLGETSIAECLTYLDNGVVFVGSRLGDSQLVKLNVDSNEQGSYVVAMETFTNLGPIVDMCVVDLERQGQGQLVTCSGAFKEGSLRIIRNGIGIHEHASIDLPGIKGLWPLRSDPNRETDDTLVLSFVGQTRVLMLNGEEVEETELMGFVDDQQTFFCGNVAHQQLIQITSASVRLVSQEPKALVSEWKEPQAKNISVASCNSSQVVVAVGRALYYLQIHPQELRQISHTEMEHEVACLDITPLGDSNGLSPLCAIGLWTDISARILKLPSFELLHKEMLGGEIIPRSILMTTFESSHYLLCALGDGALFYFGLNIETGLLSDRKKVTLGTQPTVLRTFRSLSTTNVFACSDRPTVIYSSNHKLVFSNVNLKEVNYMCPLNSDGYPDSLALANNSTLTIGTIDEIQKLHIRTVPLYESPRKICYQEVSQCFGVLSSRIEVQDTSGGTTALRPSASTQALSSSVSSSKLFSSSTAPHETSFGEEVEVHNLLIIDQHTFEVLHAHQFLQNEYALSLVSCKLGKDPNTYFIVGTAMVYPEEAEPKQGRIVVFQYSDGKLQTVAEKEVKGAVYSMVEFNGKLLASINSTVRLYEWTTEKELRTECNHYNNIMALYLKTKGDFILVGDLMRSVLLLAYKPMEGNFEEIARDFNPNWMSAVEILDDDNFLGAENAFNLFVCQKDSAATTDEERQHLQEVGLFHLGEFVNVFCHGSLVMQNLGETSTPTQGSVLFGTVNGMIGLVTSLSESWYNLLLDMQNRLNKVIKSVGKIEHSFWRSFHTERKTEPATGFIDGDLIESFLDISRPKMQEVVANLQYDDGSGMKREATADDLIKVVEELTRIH
Method: The binding potency was determined using HTRF assay technology (Perkin Elmer). Compounds were serially diluted in DMSO and […] volume was transferred to white 384-well plate.

[1] = MCF7, MCF-7, maximal ER degradation, 16 hrs treatment, read-out: MCF7 Dmax
[2] = maximal ER degradation, 16 hrs treatment, read-out: T47D Dmax
[3] = maximal ER degradation, 16 hrs treatment
[4] = MCF7, read-out: MCF7 Dmax, MCF-7, maximal ER degradation, 16 hrs treatment
[5] = read-out: T47D Dmax, T47D, maximal ER degradation, 16 hrs treatment

`COc1cc(N2CCC(CN3CCN4c5ccc6c(c5OC[C@H]4C3)CN([C@H]3CCC(=O)NC3=O)C6=O)CC2)c(F)cc1[C@H]1c2ccc(O)cc2CC[C@H]1c1ccccc1` [Compound A39, (S)-3-((R)-7-((1-(2-fluoro-4-((1R,2R)-6-hydroxy-2-phenyl-1,2,3,4-tetrahydronaphthalen-1-yl)-5-methoxyphenyl)piper-idin-4-yl)methyl)-1-oxo-1,3,5,5a,6,7,8,9-octahydro-2H-pyrazino[1′,2′:4,5][1,4]oxazino [2,3-e]isoindol-2-yl)piperidine-2,6-dione] was tested, and the Dmax (ER in MCF-7 cells; [1]) was 25 to 50%, the DC50 (ER in MCF-7 cells; 16 hrs treatment) was 10 to 100 nM and the DC50 (ER in T47D cells; 16 hrs treatment) was 1 to 10 nM. The Dmax (ER in T47D cells; [2]) was 50 to 75% and the IC50 (CRBN/DDB1) was 50 to 500 nM.
With `COc1cc(N2CCC3(CC2)CC(CN2CCC(c4ccc(NC5CCC(=O)NC5=O)cc4F)CC2)C3)ccc1[C@@H]1c2ccc(O)cc2CC[C@@H]1c1ccccc1` (stereo in doubt) [Compound A106, (R)-3-((3-fluoro-4-(1-((7-(4-((1S,2S)-6-hydroxy-2-phenyl-1,2,3,4-tetrahydronaphthalen-1-yl)-3-methoxyphenyl)-7-aza-spiro[3.5]nonan-2-yl)methyl)-piperidin-4-yl)phenyl)amino)-piperidine-2,6-dione] the DC50 (ER in MCF-7 cells; 16 hrs treatment) was under 1 nM, the “MCF7 Dmax” value (ER in MCF-7 cells; 16 hrs treatment) was “B (“B”: >50 and <75%)” and the DC50 (ER in T47D cells; 16 hrs treatment) was under 1 nM. The “T47D Dmax” value (ER in T47D cells; [3]) was “B (“B”: >50 and <75%)” and the IC50 (CRBN/DDB1) was 50 to 500 nM.
For `COc1cc(N2CCC3(CC2)CC(CN2CCN4c5ccc6c(c5OC[C@H]4C2)CN([C@H]2CCC(=O)NC2=O)C6=O)CO3)ccc1[C@@H]1c2ccc(O)cc2CC[C@@H]1c1ccccc1` (stereo partly drawn) [Compound A53, (3S)-3-((5aR)-7-((8-(4-((1S, 2S)-6-hydroxy-2-phenyl-1,2,3,4-tetrahydronaphthalen-1-yl)-3-methoxyphenyl)-1-oxa-8-azaspiro[4.5]decan-3-yl)-methyl)-1-oxo-1,3,5,5a,6,7,8,9-octahydro-2H-pyrazino[1′,2′: 4,5][1,4]oxazino[2,3-e]isoindol-2-yl)piperidine-2,6-dione], the Dmax (ER in MCF-7 cells; [1]) was 25 to 50%, the DC50 (ER in MCF-7 cells; 16 hrs treatment) was 10 to 100 nM and the DC50 (ER in T47D cells; 16 hrs treatment) was 1 to 10 nM. For the same molecule, the Dmax (ER in T47D cells; [2]) was 50 to 75% and the IC50 (CRBN/DDB1) was under 50 nM.
In the case of `O=C1CC[C@H](NC(=O)c2ccc3c(n2)OC[C@H]2CN(C[C@@H]4COC5(CCN(c6ccc([C@H]7c8ccc(O)cc8CC[C@H]7c7ccccc7)cc6)CC5)C4)CCN32)C(=O)N1` (single isomer, unassigned) [Compound A16], the Dmax (ER in MCF-7 cells; [1]) is reported as 50 to 75%, the DC50 (ER in MCF-7 cells; 16 hrs treatment) is reported as 1 to 10 nM and the DC50 (ER in T47D cells; 16 hrs treatment) is reported as under 1 nM. It also gave a Dmax (ER in T47D cells; [2]) of 50 to 75% and an IC50 (CRBN/DDB1) of 500 to 5000 nM.
Molecule `O=C1CC[C@@H](Nc2ccc(C3CCN(C[C@@H]4COC5(CCN(c6ccc([C@H]7c8ccc(O)cc8CC[C@H]7c7ccccc7)cc6)CC5)C4)CC3)c(F)c2)C(=O)N1` (single isomer, unassigned) [Compound A60] has a Dmax (ER in MCF-7 cells; [1]) of 25 to 50%, a DC50 (ER in MCF-7 cells; 16 hrs treatment) of over 100 nM and a DC50 (ER in T47D cells; 16 hrs treatment) of over 100 nM. It also gave a Dmax (ER in T47D cells; [2]) of under 25% and an IC50 (CRBN/DDB1) of 50 to 500 nM.
Molecule `O=C1CCC(NC(=O)c2ccc3c(n2)OC[C@H]2CN(CC4CCN(c5ccc([C@H]6c7ccc(O)cc7CC[C@H]6c6ccccc6)cc5)CC4)CCN32)C(=O)N1` (stereo in doubt) [Compound A4, (4aR)-N-(2,6-dioxopiperidin-3-yl)-3-((1-(4-((1S,2R)-6-hydroxy-2-phenyl-1,2,3,4-tetrahydronaphthalen-1-yl)-phenyl)piperidin-4-yl)meth-yl)-1,2,3,4,4a,5-hexahydro-pyrazino[1,2-d]pyrido[2,3-b] [1,4]oxazine-8-carboxamide] has a Dmax (ER in MCF-7 cells; [1]) of 50 to 75%, a DC50 (ER in MCF-7 cells; 16 hrs treatment) of 1 to 10 nM and a DC50 (ER in T47D cells; 16 hrs treatment) of under 1 nM. It also gave a Dmax (ER in T47D cells; [2]) of 50 to 75% and an IC50 (CRBN/DDB1) of 500 to 5000 nM.
`O=C1CC[C@H](N2Cc3cc4c(cc3C2=O)OC[C@H]2CN(C[C@@H]3COC5(CCN(c6ccc([C@H]7c8ccc(O)cc8CC[C@H]7c7ccccc7)cc6)CC5)C3)CCN42)C(=O)N1` [Compound A20, (S)-3-((R)-3-(((R)-8-(4-((1S, 2R)-6-hydroxy-2-phenyl-1,2,3,4-tetrahydronaphthalen-1-yl)phenyl)-1-oxa-8-azaspiro [4.5]decan-3-yl)methyl)-8-oxo-1,2,3,4,4a,5,8,10-oCtahydro-9H-pyrazino[1′,2′:4,5][1,4]oxazino[2,3-f]isoindol-9-yl)-piperidine-2,6-dione] was tested, and the Dmax (ER in MCF-7 cells; [1]) was 50 to 75%, the DC50 (ER in MCF-7 cells; 16 hrs treatment) was under 1 nM and the DC50 (ER in T47D cells; 16 hrs treatment) was under 1 nM. It also gave a Dmax (ER in T47D cells; [2]) of 50 to 75% and an IC50 (CRBN/DDB1) of 50 to 500 nM.
Work on `O=C1CC[C@H](Nc2ccc(C3CCN(C[C@@H]4COC5(CCN(c6ccc([C@@H]7c8ccc(O)cc8CC[C@@H]7c7ccccc7)cc6)CC5)C4)CC3)cc2)C(=O)N1` (single isomer, unassigned) [Compound A28] yielded a Dmax (ER in MCF-7 cells; [1]) of 25 to 50%, a DC50 (ER in MCF-7 cells; 16 hrs treatment) of 10 to 100 nM and a DC50 (ER in T47D cells; 16 hrs treatment) of 10 to 100 nM. It also gave a Dmax (ER in T47D cells; [2]) of 25 to 50% and an IC50 (CRBN/DDB1) of 50 to 500 nM.
`O=C1CCC(Nc2ccc(C34CCN(C[C@H]5COC6(CCN(c7ccc([C@@H]8c9ccc(O)cc9CC[C@@H]8c8ccccc8)cc7)CC6)C5)CC3C4(F)F)cc2)C(=O)N1` (stereo partly drawn) [Compound A44, (3S)-3-((4-(7,7-difluoro-3-(((S)-8-(4-((1R,2S)-6-hydroxy-2-phenyl-1,2,3,4-tetrahydro-naphthalen-1-yl)phenyl)-1-oxa-8-azaspiro[4.5]decan-3-yl)-methyl)-3-azabicyclo[4.1.0]heptan-6-yl)phenyl)amino)-piperidine-2,6-dione] was tested, and the Dmax (ER in MCF-7 cells; [4]) was under 25%, the DC50 (ER in MCF-7 cells; 16 hrs treatment) was over 100 nM and the DC50 (ER in T47D cells; 16 hrs treatment) was over 100 nM. It also gave a Dmax (ER in T47D cells; [5]) of under 25% and an IC50 (CRBN/DDB1) of over 5000 nM.
Work on `COc1cc(N2CCC(CN3CCC4(CC3)COc3c4ccc4c3CN([C@H]3CCC(=O)NC3=O)C4=O)CC2)c(F)cc1[C@@H]1c2ccc(O)cc2CC[C@@H]1c1ccccc1` [Compound A93, (S)-3-(1′-((1-(2-fluoro-4-((1S,2S)-6-hydroxy-2-phenyl-1,2,3,4-tetrahydronaphthalen-1-yl)-5-methoxyphenyl)piperidin-4-yl)methyl)-6-oxo-6,8-dihydro-2H,7H-spiro[furo[2,3-e]isoindole-3,4′-piperidin]-7-yl)piperidine-2,6-dione] yielded a Dmax (ER in MCF-7 cells; [4]) of 50 to 75%, a DC50 (ER in MCF-7 cells; 16 hrs treatment) of under 1 nM and a DC50 (ER in T47D cells; 16 hrs treatment) of under 1 nM. It also gave a Dmax (ER in T47D cells; [5]) of 50 to 75% and an IC50 (CRBN/DDB1) of under 50 nM.
For `O=C1CC[C@H](N2Cc3cc4c(cc3C2=O)OC[C@@H]2CN(CC3CCC5(CC3)CN(c3ccc([C@@H]6c7ccc(O)cc7CC[C@@H]6c6ccccc6)cn3)C5)CCN42)C(=O)N1` [Compound A124, (S)-3-((S)-3-((2-(5-((1S,2S)-6-hydroxy-2-phenyl-1,2,3,4-tetrahydronaphthalen-1-yl)pyridin-2-yl)-2-azaspiro[3.5]nonan-7-yl)methyl)-8-oxo-1,2,3,4,4a,5,8,10-octahydro-9H-pyrazino[1′,2′: 4,5][1,4]oxazino[2,3-f]isoindol-9-yl)piperidine-2,6-dione], the DC50 (ER in MCF-7 cells; 16 hrs treatment) was 10 to 100 nM, the “MCF7 Dmax” value (ER in MCF-7 cells; 16 hrs treatment) was “B (“B”: >50 and <75%)” and the DC50 (ER in T47D cells; 16 hrs treatment) was 10 to 100 nM. It also gave a Dmax (ER in T47D cells; [2]) of 50 to 75% and an IC50 (CRBN/DDB1) of 500 to 5000 nM.
For `O=C1CC[C@H](NC(=O)c2ccc3c(n2)OC[C@H]2CN(C[C@H]4COC5(CCN(c6ccc([C@@H]7c8ccc(O)cc8CC[C@@H]7c7ccccc7)cc6)CC5)C4)CCN32)C(=O)N1` (single isomer, unassigned) [Compound A13], the Dmax (ER in MCF-7 cells; [1]) was 50 to 75%, the DC50 (ER in MCF-7 cells; 16 hrs treatment) was 1 to 10 nM and the DC50 (ER in T47D cells; 16 hrs treatment) was 1 to 10 nM. It also gave a Dmax (ER in T47D cells; [2]) of 50 to 75% and an IC50 (CRBN/DDB1) of 500 to 5000 nM.
For `O=C1CC[C@H](N2Cc3cc4c(cc3C2=O)OCC42CCN(CC3CC4(CCN(c5ccc([C@@H]6c7ccc(O)cc7CC[C@@H]6c6ccccc6)cn5)CC4)C3)CC2)C(=O)N1` [Compound A126, (S)-3-(1′-((7-(5-((1S,2S)-6-hydroxy-2-phenyl-1,2,3,4-tetra-hydronaphthalen-1-yl)pyridin-2-yl)-7-azaspiro[3.5]nonan-2-yl)methyl)-7-oxo-5,7-dihydro-2H,6H-spiro[furo[2,3-f]iso-indole-3,4′-piperidin]-6-yl)-piperidine-2,6-dione], the DC50 (ER in MCF-7 cells; 16 hrs treatment) was under 1 nM, the “MCF7 Dmax” value (ER in MCF-7 cells; 16 hrs treatment) was “B (“B”: >50 and <75%)” and the DC50 (ER in T47D cells; 16 hrs treatment) was under 1 nM. For the same molecule, the “T47D Dmax” value (ER in T47D cells; [3]) was “A (“A”: >=75%)” and the IC50 (CRBN/DDB1) was 50 to 500 nM.
For `COc1cc(N2CCC3(CC2)CC(CN2CCN4c5cc6c(cc5OC[C@@H]4C2)C(=O)N([C@H]2CCC(=O)NC2=O)C6)CO3)ccc1[C@@H]1c2ccc(O)cc2CC[C@@H]1c1ccccc1` (stereo partly drawn) [Compound A57, (3S)-3-((4aS)-3-((8-(4-((1S,2S)-6-hydroxy-2-phenyl-1,2,3,4-tetrahydronaphthalen-1-yl)-3-methoxyphenyl)-1-oxa-8-aza-spiro[4.5]decan-3-yl)methyl)-8-oxo-1,2,3,4,4a,5,8,10-octa-hydro-9H-pyrazino[1′,2′:4,5] [1,4]oxazino[2,3-f]isoindol-9-yl)pipcridinc-2,6-dionc], the Dmax (ER in MCF-7 cells; [1]) was 25 to 50%, the DC50 (ER in MCF-7 cells; 16 hrs treatment) was 10 to 100 nM and the DC50 (ER in T47D cells; 16 hrs treatment) was 1 to 10 nM. For the same molecule, the Dmax (ER in T47D cells; [2]) was 50 to 75% and the IC50 (CRBN/DDB1) was 50 to 500 nM.
With `COc1cc(N2CCC(CN3CCC4(CC3)COc3c4ccc4c3CN([C@H]3CCC(=O)NC3=O)C4=O)CC2)ccc1[C@H]1c2ccc(O)cc2CC[C@H]1c1ccccc1` [Compound A36, (R)-3-(1′-((1-(4-((1S,2S)-6-hydroxy-2-phenyl-1,2,3,4-tetrahydronaphthalen-1-yl)-3-methoxyphenyl)piperidin-4-yl)methyl)-6-oxo-6,8-dihydro-2H,7H-spiro[furo[2,3-e]iso-indole-3,4′-piperidin]-7-yl)-piperidine-2,6-dione formate] the Dmax (ER in MCF-7 cells; [4]) was 50 to 75%, the DC50 (ER in MCF-7 cells; 16 hrs treatment) was under 1 nM and the DC50 (ER in T47D cells; 16 hrs treatment) was under 1 nM. For the same molecule, the Dmax (ER in T47D cells; [5]) was 25 to 50% and the IC50 (CRBN/DDB1) was under 50 nM.
